# Test results taken from patent publication US5457092A, “Methods of promoting bone growth in mammals comprising administration of modified parathyroid hormone” (Gesellschaft fur Biotechnologische Forschung mbH (GBF), priority 1987, dated 1995).
# Like-named read-outs stand apart in the source and are kept apart here.
# Key:
# [1] = tested on: osteoblast enriched rat embryo calvaria cell cultures; test: Cyclic AMP production in rat embryo calvaria cell cultures; assay type: cell-based; conditions: 100 nM; 15 min; control 29 ± 2.9 pmol/mg of protein
# Summary of the method: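 Osteoblast-enriched rat embryo calvaria cultures stimulated with PTH fragments from the central portion of the molecule. Cyclic AMP measured 15 min after stimulation; CK specific activity measured 24 h after stimulation. Values are means ±S.E.M., N≥5, compared with controls by Student's T test.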
# [2] = tested on: osteoblast enriched rat embryo calvaria cell cultures; test: DNA synthesis ([3H]thymidine incorporation) in rat embryo calvaria cell cultures; assay type: cell-based; conditions: for [3H)Thymidine incorporation, effect of fragment (experimental value/control value): 100 nM, 24 h, control 624 ± 73 c.p.m./μg of DNA
# Summary of the method: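 Cultures stimulated with bPTH (1-84); [3H]thymidine incorporation into DNA measured 24 h after stimulation. Values are means ±S.E.M., N≥5, compared with controls by Student's t test.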
# [3] = tested on: ROS 17/2.8 osteoblast-like cells; test: CK specific activity in ROS 17/2.8 osteoblast-like cells; assay type: cell-based, rat; conditions: control 698 ± 70 nmol/min per mg of protein
# [4] = tested on: rat organs (epiphysis, diaphysis, kidney); test: CK specific activity in rat organs after i.p. injection; assay type: in vivo; conditions: for CK specific activity, Kidney / CK specific activity, Epiphysis / CK specific activity, Diaphysis: rat; for CK specific activity, Kidney: control 1.43 ± 0.20; for CK specific activity, Epiphysis: control 15.0 ± 2.2; for CK specific activity, Diaphysis: control 26.0 ± 3.,9; for effect on CK activity in rat organs (in words): 0.875 μg/rat
# Description: FIG. 13 is a graph showing the time-dependent stimulation by hPTH (28-48) of CK specific activity in rat organs. Female rats (20-25 days old) were injected i.p. with hPTH-(28-48) (1.25 μg/rat). Experimental details are as described for FIG. 10. (a) Diaphysis, (b) epiphysis, (c) kidney. *P<0.05, **P<0.01 versus controls.
# FIG. 14 is a graph showing the dose-dependent stimulation of CK specific activity by hPTH (1-34) in rat organs. Female rats (20-25 days old) were injected i.p. with hPTH-(1-34). At 4 h later, rats were killed and extracts were prepared and assayed as described below. Experimental details are as described for FIG. 10 (a) Diaphysis, (b) epiphysis, (c) kidney. *P<0.05, ** P<0.01 versus controls.
# FIG. 15 is a graph showing the dose-dependent stimulation of CK specific activity by hPTH (28-48) in rat organs. Female rats (20-25 days old) were injected i.p. with hPTH-(28-48). Experimental details are as described for FIG. 13 (a) Diaphysis, (b) epiphysis, (c) kidney. *P<0.05, **P<0.01 versus controls.
# FIG. 16 is a graph showing the […] stimulation by bPTH (1-84) of CK specific activity in rat organs. Female rats (20-25 days old) were injected i.p. with bPTH-(1-84) (3.5 μg/rat). At the times indicated, the rats were killed and the diaphyses (a) and epiphyses (b) of long bones as well as the kidneys (c) were collected and homogenized. Extracts were prepared and assayed as described below. Results are means ±S.E.M for π=5. Statistical significance of differences between treated and control groups by Student's T test: *P<0.05; **P<0.01. Note that the activity scales differ for different organs.
# Kidneys, tibia and femur were excised; the epiphyses or diaphyses of the long bones were collected and washed thoroughly with cold 0.9% NaCl. The bones were split open lengthwise and the marrow was scraped out. Organs were homogenized in ice-cold buffer containing 50 mM-Tris/HCl (pH 6.8), 5 mH-magnesium acetate. 2.5 mM-dithiothreitol, 0.4 mM-EDTA and 250 mM-sucrose using a Polytron homogenizer in 10 s bursts with intervening cooling periods. Supernatant extracts were obtained by centrifugation at 12000 g for 5 min at 4° C. CK activity was measured at 30° C. in a Gilford 250 automatic recording spectrophotometer at 340 nm using a coupled assay for ATP, in 0.5 ml of incubation mixture containing 50 mM-imidazole acetate buffer (pH 6.7), 25 mM-phosphocreatine, 20 mM-N-acetylcysteine, 20 mM-D-glucose, 10 mM-magnesium acetate, 5 mM-EDTA, 2 mM-ADP, 2 mM-NAD+, 2 mM-dithiothreitol, 50 μM-diadenosine pentaphosphate (adenylate kinase inhibitor), 5 μg of bovine serum albumin. 1.2 units of glucose-6-phosphate dehydrogenase and 0.8 units of hexokinase. Protein was determined by the Coomassie Brilliant Blue dye-binding method, with bovine serum albumin as the standard.
# renal adenylate cyclase = conditions: Adv. Protein Chemistry 35 (1982) 323 ff. (Potts et al.), cited from earlier work
# [5] = 4 h after injection of 0.875 μg
substance,measurement,setting,value
"hPTH(28-48): mid-regional PTH fragment 28-48, human source (LQDVHNFVALGAPLAPRDAGS; Parathyroid hormone; UniProt P01270 59-79, looked up, fragment)","Cyclic AMP concentration, effect of fragment (experimental value/control value)",[1],1.22 ± 0.09
same,stimulation of DNA synthesis (in words),[2],maximal
same,"[3H)Thymidine incorporation, effect of fragment (experimental value/control value)",[2],2.82 ± 0.18
same,"CK specific activity, effect of fragment (experimental value/control value)",[3]; 400 nM,1.56 ± 0.08
same,"time of maximal increase of CK activity, diaphysis",[4]; 1.25 μg/rat i.p.,1 h
same,"time of maximal increase of CK activity, epiphysis",[4]; 1.25 μg/rat i.p.,4 h
same,effect on CK activity after injection (in words),"[4]; 1.25 μg/rat i.p., equivalent to 14 nM",increased CK activity
same,CK activity in diaphysis over time (in words),"[4]; 1.25 μg/rat i.p., 1, 4 and 24 h",significantly increased at all three times measured
same,CK activity in epiphysis at 1 h (in words),"[4]; 1.25 μg/rat i.p., 1 h",significant increase
same,CK activity in epiphysis at 24 h (in words),"[4]; 1.25 μg/rat i.p., 24 h",no significant increase
same,CK specific activity in kidney at 24 h (in words),"[4]; 1.25 μg/rat i.p., 24 h",declined to close to the constitutive activity
same,stimulation of CK specific activity in diaphysis at the dose of maximum effect,"[4]; 1.25 μg/rat, 4 h later",approx. 3 fold
same,dose of maximal effect on CK specific activity,"[4]; i.p., 4 h later",1.25 μg/rat
same,dose giving a significant increase in CK specific activity in all organs,"[4]; i.p., 4 h later, diaphysis, epiphysis, kidney",0.15 μg/rat
same,"CK specific activity, Kidney",[4]; 4 h after injection of 1.25 μg,2.26 ± 0.34 μmol/min per mg of protein
same,"CK specific activity, Epiphysis",[4]; 4 h after injection of 1.25 μg,20.9 ± 3.0 μmol/min per mg of protein
same,"CK specific activity, Diaphysis",[4]; 4 h after injection of 1.25 μg,37.2 ± 3.3 μmol/min per mg of protein
same,stimulation of renal adenylate cyclase,renal adenylate cyclase,does not stimulate renal adenylate cyclase
same,stimulation of renal adenylate cyclase,renal adenylate cyclase; listed as hPTh(28-48),will not stimulate renal adenylate cyclase
"hPTH(25-39): PTH fragment 25-39, human source (RKKLQDVHNFVALGA; Parathyroid hormone; UniProt P01270 56-70, looked up, fragment)","Cyclic AMP concentration, effect of fragment (experimental value/control value)",[1],0.87 ± 0.30
same,stimulation of DNA synthesis (in words),[2],maximal
same,"[3H)Thymidine incorporation, effect of fragment (experimental value/control value)",[2],2.96 ± 0.18
same,"CK specific activity, effect of fragment (experimental value/control value)",[3]; 200 nM,1.71 ± 0.08
same,effect on CK activity in rat organs (in words),[4]; equivalent to 14 nM,significant increase
same,"CK specific activity, Kidney",[4]; [5],3.22 ± 0.78 μmol/min per mg of protein
same,"CK specific activity, Epiphysis",[4]; [5],24.0 ± 3.2 μmol/min per mg of protein
same,"CK specific activity, Diaphysis",[4]; [5],41.8 ± 4.9 μmol/min per mg of protein
"hPTH(34-47): PTH fragment 34-47, human source; comparative example (FVALGAPLAPRDAG; Parathyroid hormone; UniProt P01270 65-78, looked up, fragment) [reference compound]","CK specific activity, effect of fragment (experimental value/control value)",[3]; 500 nM,1.07 ± 0.10
same,effect on CK activity in rat organs (in words),[4]; equivalent to 14 nM,no effect
same,"CK specific activity, Kidney",[4]; [5],1.64 ± 0.32 μmol/min per mg of protein
same,"CK specific activity, Epiphysis",[4]; [5],16.7 ± 2.5 μmol/min per mg of protein
same,"CK specific activity, Diaphysis",[4]; [5],24.9 ± 4.8 μmol/min per mg of protein
